Measured values reported in PubChem BioAssay AID602167 (The Scripps Research Institute Molecular Screening Center, 2012).
pIC50: −log10 of the molar value. Active and inactive are the calls of the source. No rule for the calls is given here.

target: transactivating tegument protein VP16 (Human herpesvirus 1), as a GAL4-VP16 activation-domain luciferase reporter; experiment: VP16 transactivation inhibitor potency, dose response, counter-screen for SRC3 inhibitor project, cell-based, luminescence, high throughput, SRC3 series (AID 602167); settings: VP16 transactivation luciferase reporter cells

SMILES	pIC50	IC50
COc1cccc(NC(=O)CSc2nnc(-c3cc(C)n(-c4ccccc4)c3C)o2)c1	5.62	
CCc1ccc(/C=C2\SC(=S)N(CCCC(=O)NCCCN3CCOCC3)C2=O)cc1		inactive
Fc1ccccc1-c1csc(=Nc2cccnc2)n1CCCn1ccnc1	5.13	
CN[C@H]1CCc2cc(OC)c(OC)c(OC)c2-c2ccc(OC)c(=O)cc21		> 35.9 µM (inactive)
O=C(N/N=C/c1cc(Br)c(Br)s1)c1ccncc1		inactive
CC1CCN(C2=NC(=O)/C(=C/c3ccccc3F)S2)CC1		inactive
CC(=O)Nc1ccc(SCC(=O)c2cc(C)n(-c3ccccc3F)c2C)cc1		> 12 µM (inactive)
CS(=O)(=O)c1ccc(Sc2nc3ccccc3s2)c([N+](=O)[O-])c1		> 35.9 µM (inactive)
CCCCN1C=CC(=C2C(=O)c3ccccc3C2=O)C=C1	5.25	
CCCNC(=O)c1nnsc1S(=O)(=O)c1ccc(Cl)cc1		inactive
C[C@@H](C(=O)Nc1ccc2c(c1)OCCO2)n1c(=O)[nH]c2ccccc2c1=O		inactive
CC(=O)c1cccc(NC(=O)Nc2ccc3c(c2)N(C)C(=O)CS3)c1		inactive
O=[N+]([O-])c1nn(-c2ccc3c(c2)OCCO3)n(O)c1=Nc1ccccc1	5.04	
O=S(=O)(c1ccc(F)cc1)c1snnc1-c1ccccc1		inactive
CN(C)/C=C/C(=O)c1ccc2noc(-c3ccccc3)c2c1		inactive
CCN(C(C)=O)c1cnc(C=NNC(N)=S)c2ccccc12	5.36	
Cc1ccc(N=c2c([N+](=O)[O-])nn(-c3ccc4c(c3)OCCO4)n2O)cc1F		inactive
COc1cc(/C=C(/C(=O)c2cccs2)c2nc3ccccc3[nH]2)cc(OC)c1O	5.10	
CN(C)S(=O)(=O)c1ccc(N2CCN(S(=O)(=O)c3ccc(F)cc3)CC2)c(Cl)c1	5.03	
CC(C)(C)c1ccc(Oc2ccc(N)cn2)cc1		inactive
Cc1cccc(Oc2sc(C(=O)c3ccccc3)c(N)c2C#N)c1		inactive
O=C(NCCCn1ccnc1)c1ccc(N2CCCCCC2)c([N+](=O)[O-])c1		inactive
COc1ccc(CCNC(=O)c2nnn(-c3ccc4c(c3)OCCO4)c2N)cc1OC		inactive
C=C1C(=O)[C@]23C[C@H]1CCC2[C@@]1(C)C(C[C@@H]3O)[C@](C)(C(=O)OC)CC[C@@H]1O (some centres undefined)	5.28	
Cc1ccc(-n2c(C)cc(C(=O)COc3cccnc3[N+](=O)[O-])c2C)cc1		inactive
O=c1[nH]c(O)c(N=Nc2ccc3c(c2)OCCO3)c(=O)[nH]1		inactive
COc1cc2[nH]c3c(Cl)ncnc3c2cc1OC		inactive

SMILES	pIC50	IC50
O=C(CCl)NC(Cc1ccccc1)c1ccccc1 (centres undefined)		inactive
C(=Cc1cnc2ccccc2n1)c1ccc2c(c1)OCO2		inactive
CCn1c2ccccc2c2cnc(N=CN(C)C)c(C#N)c21		inactive
CN1C(=O)C2(C(C#N)=C(N)N(c3cc(Cl)cc(Cl)c3)C3=C2C(=O)CC(C)(C)C3)c2ccccc21 (centres undefined)		inactive
c1cc2[nH]snc2c2nc(C3CC3)nc12	5.32	
NS(=O)(=O)c1ccc(Sc2nc3ccccc3s2)c([N+](=O)[O-])c1	5.14	
CCOc1cc(C(N)=O)cc(Br)c1OC		> 35.9 µM (inactive)
Fc1ccc(CSc2nnc(-c3ccncc3)o2)cc1	5.42	
Nc1ncccc1C(=O)OCC(=O)N1CCN(S(=O)(=O)c2ccc(Cl)cc2)CC1	5.01	
O=C(CCCc1nc(-c2ccccc2Cl)no1)NC1CCCC1		inactive
O=C(NC1CCCCC1)C(c1cccnc1)N(C(=O)CCl)c1cccc(Cl)c1 (centres undefined)	5.22	
Cc1cc(/C=C2\Cc3ccccc3C2=O)c(C)n1-c1ccccc1		inactive
CC(=O)OCCN1c2ccccc2Sc2cnccc21	5.20	
COc1ccc(OC)c(N/C=C/C(=O)c2ccccc2)c1		inactive
COc1cc2c(c(OC)c1OC)-c1ccc(SC)c(=O)cc1C(NC=O)CC2 (centres undefined)		inactive
Cc1nc([N+](=O)[O-])c(Sc2nc3ccccc3n2C)n1Cc1ccccc1		inactive
O=c1[nH]c2ccccc2n1C1CCN(C(c2ccccc2)c2nnnn2Cc2ccccc2)CC1 (centres undefined)		inactive
O=C(Nc1ccc(OCC(=O)N2CCOCC2)cc1)c1cncc(Br)c1		inactive
c1csc(Cc2nn3c(-c4ccncc4)nnc3s2)c1		inactive
O=C(Nc1nc2ccccc2s1)C1c2ccccc2Oc2ccccc21		inactive
COc1cc([C@@H]2c3cc4c(cc3[C@@H](O[C@@H]3O[C@@H]5CO[C@@H](C)O[C@H]5[C@H](O)[C@H]3O)[C@H]3COC(=O)[C@H]23)OCO4)cc(OC)c1O		> 35.9 µM (inactive)
Brc1ccc2ncc3ccccc3c2c1		inactive
COCCNC(=O)c1cc(-c2ccccn2)nc2ccc(S(=O)(=O)N3CCC(C)CC3)cc12		> 35.9 µM (inactive)
COc1cc2oc(=O)cc(-c3ccc(-c4ccc(CO)cc4)cc3)c2c(OC)c1OC	5.26	
CN(C)c1ccc(CNC(=O)CCNS(=O)(=O)c2cc(Br)cnc2N)cc1	5.07	
C#CC(=O)N(c1cc(OC)ccc1OC)C(C(=O)NC1CCCC1)c1cccs1 (centres undefined)		> 35.9 µM (inactive)
Cc1ccc(C(=O)O/N=C(\N)c2ccccn2)c(Cl)c1		inactive
